# Legend:
# [1] = biological target: GDP-bound HRAS wild-type protein (Homo sapiens, UniProt P01112); assay: Binding to HRAS by surface plasmon resonance (SPR), Single Cycle Kinetics; conditions: for HRAS/KRAS (ratio of KD value for HRAS to KD value for KRAS) / HRAS/KRAS (ratio of KD value with respect to HRAS to KD value with respect to KRAS): GDP-bound HRAS wild-type vs GDP-bound KRAS wild-type
# [2] = biological target: GDP-bound NRAS wild-type protein (Homo sapiens, UniProt P01111); assay: Binding to NRAS by surface plasmon resonance (SPR), Single Cycle Kinetics; conditions: for NRAS/KRAS (ratio of KD value for NRAS to KD value for KRAS) / NRAS/KRAS (ratio of KD value with respect to NRAS to KD value with respect to KRAS): GDP-bound NRAS wild-type vs GDP-bound KRAS wild-type
# GDP-bound NRAS wild-type protein, sequence (P01111 whole entry): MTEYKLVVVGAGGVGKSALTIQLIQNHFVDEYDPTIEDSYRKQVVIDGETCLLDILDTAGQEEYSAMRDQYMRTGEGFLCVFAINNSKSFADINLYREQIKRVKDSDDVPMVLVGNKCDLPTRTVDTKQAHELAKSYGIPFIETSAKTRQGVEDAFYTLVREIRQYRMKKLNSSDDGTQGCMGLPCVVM
# GDP-bound HRAS wild-type protein, sequence (P01112 whole entry): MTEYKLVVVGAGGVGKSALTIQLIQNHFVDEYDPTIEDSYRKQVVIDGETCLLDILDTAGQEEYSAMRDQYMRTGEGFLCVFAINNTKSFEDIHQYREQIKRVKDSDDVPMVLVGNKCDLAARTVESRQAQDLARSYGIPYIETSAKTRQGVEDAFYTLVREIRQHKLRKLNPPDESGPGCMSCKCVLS
compound,measurement,setting,value
C#CC[C@H]1C(=O)N[C@@H]([C@@H](C)CC)C(=O)N(C)CC(=O)N(C)[C@H]2CCCCN(C2=O)[C@@H](Cc2ccc(C(F)(F)F)cc2)C(=O)N(C)CC(=O)N[C@@H](CCc2cc(F)c(C(F)(F)F)c(F)c2)C(=O)N2C[C@H](OCC)C[C@H]2C(=O)NC2(CCC2)C(=O)N(C)[C@@H](C2CCCC2)C(=O)N(C)[C@H](C(=O)N(C)C)CC(=O)N1C [PP0696],HRAS/KRAS (ratio of KD value with respect to GDP-bound HRAS wild-type protein to KD value with respect to KRAS),[1]; SPR,B (a compound having 3 or more and less than 10 is denoted as B)
same,NRAS/KRAS (ratio of KD value with respect to GDP-bound NRAS wild-type protein to KD value with respect to KRAS),[2]; SPR,B (a compound having 3 or more and less than 10 is denoted as B)
CC[C@H](C)[C@@H]1NC(=O)[C@H](CC)N(C)C(=O)C[C@@H](C(=O)N(C)C)N(C)C(=O)[C@H](C2CCCC2)N(C)C(=O)C2(CC(C)(C)C2)NC(=O)[C@@H]2C[C@H](C)CN2C(=O)[C@H](CCc2ccc(C(F)(F)F)c(Cl)c2)NC(=O)CN(C)C(=O)[C@H](Cc2ccc(C)cc2)N2CC/C=C\C[C@@H](C2=O)N(C)C(=O)CN(C)C1=O [PP1844],HRAS/KRAS (ratio of KD value for HRAS to KD value for KRAS),"[1]; KD ratio, SPR",B (a compound having 3 or more and less than 10 is denoted as B)
same,NRAS/KRAS (ratio of KD value for NRAS to KD value for KRAS),"[2]; KD ratio, SPR",A (a compound having 10 or more and less than 20 is denoted as A)
CCC(CC)[C@H]1C(=O)N(C)[C@H](C(=O)N(C)C)CC(=O)N(C)[C@@H](COC)C(=O)N[C@@H]([C@@H](C)CC)C(=O)N(C2CC2)CC(=O)N(C)[C@H]2C/C=C\CCN(C2=O)[C@@H](Cc2ccc(C(F)F)cc2)C(=O)N(C)CC(=O)N[C@@H](CCc2cc(F)c(C(F)(F)F)c(F)c2)C(=O)N2C[C@H](OC3CCC3)C[C@H]2C(=O)NC2(CC(C)(C)C2)C(=O)N1C [PP2631],HRAS/KRAS (ratio of KD value with respect to GDP-bound HRAS wild-type protein to KD value with respect to KRAS),[1]; class symbols,A (a compound having 10 or more and less than 20 is denoted as A)
same,NRAS/KRAS (ratio of KD value with respect to GDP-bound NRAS wild-type protein to KD value with respect to KRAS),[2]; class symbols,AA (a compound having 20 or more is denoted as AA)
CCC[C@H]1C(=O)N[C@@H]([C@@H](C)CC)C(=O)N(C)CC(=O)N(C)[C@H]2C/C=C\CCN(C2=O)[C@@H](Cc2ccc(C(F)(F)F)cc2)C(=O)N(C)CC(=O)N[C@@H](CCc2ccc3ccn(C)c3c2)C(=O)N2C[C@H](OCC)C[C@H]2C(=O)NC2(CC(C)(C)C2)C(=O)N(C)[C@@H](C2CCCC2)C(=O)N(C)[C@H](C(=O)N(C)C)CC(=O)N1C [PP2901],HRAS/KRAS (ratio of KD value with respect to GDP-bound HRAS wild-type protein to KD value with respect to KRAS),[1]; class symbols,A (a compound having 10 or more and less than 20 is denoted as A)
same,NRAS/KRAS (ratio of KD value with respect to GDP-bound NRAS wild-type protein to KD value with respect to KRAS),[2]; class symbols,A (a compound having 10 or more and less than 20 is denoted as A)
CCCOC[C@H]1C(=O)N[C@@H]([C@@H](C)CC)C(=O)N(C)CC(=O)N(C)[C@H]2C/C=C\CCN(C2=O)[C@@H](Cc2ccc(C)cc2)C(=O)N(C)CC(=O)N[C@@H](CCc2ccc(C(F)(F)F)c(OC)c2)C(=O)N2C[C@H](OCC)C[C@H]2C(=O)NC2(CC(C)(C)C2)C(=O)N(C)[C@@H](C2CCCC2)C(=O)N(C)[C@H](C(=O)N(C)C)CC(=O)N1C [PP2449],HRAS/KRAS (ratio of KD value with respect to HRAS to KD value with respect to KRAS),[1]; SPR,A (a compound having 10 or more and less than 20 is denoted as A)
same,NRAS/KRAS (ratio of KD value with respect to NRAS to KD value with respect to KRAS),[2]; SPR,A (a compound having 10 or more and less than 20 is denoted as A)
CCOC[C@H]1C(=O)N[C@@H]([C@@H](C)CC)C(=O)N(C)CC(=O)N(C)[C@H]2C/C=C\CCN(C2=O)[C@@H](Cc2ccc(C(F)(F)F)cc2)C(=O)N(C)CC(=O)N[C@@H](CCc2ccc(C(F)(F)F)c(OC)c2)C(=O)N2C[C@H](OCC)C[C@H]2C(=O)NC2(CC(C)(C)C2)C(=O)N(C)[C@@H](CC2CCC2)C(=O)N(C)[C@H](C(=O)N(C)C)CC(=O)N1C [PP2765],HRAS/KRAS (ratio of KD value with respect to GDP-bound HRAS wild-type protein to KD value with respect to KRAS),[1]; class symbols,A (a compound having 10 or more and less than 20 is denoted as A)
same,NRAS/KRAS (ratio of KD value with respect to GDP-bound NRAS wild-type protein to KD value with respect to KRAS),[2]; class symbols,A (a compound having 10 or more and less than 20 is denoted as A)
CCO[C@@H]1C[C@H]2C(=O)NC3(CCCC3)C(=O)N(C)[C@@H](C3CCCC3)C(=O)N(C)[C@H](C(=O)N3CCOCC3)CC(=O)N(C)[C@@H](CC)C(=O)N[C@@H]([C@@H](C)CC)C(=O)N(C)CC(=O)N(C)[C@H]3CC(C)=CCN(C3=O)[C@@H](Cc3ccc(C(F)(F)F)cc3)C(=O)N(C)CC(=O)N[C@@H](CCc3cc(F)c(C(F)(F)F)c(F)c3)C(=O)N2C1 [PP1043],HRAS/KRAS (ratio of KD value with respect to HRAS to KD value with respect to KRAS),"[1]; KD ratio, SPR",C (A compound having a KD ratio of 0.1 or more and less than 3 is denoted as C)
same,NRAS/KRAS (ratio of KD value with respect to NRAS to KD value with respect to KRAS),"[2]; KD ratio, SPR",C (A compound having a KD ratio of 0.1 or more and less than 3 is denoted as C)
CCC[C@H]1C(=O)N[C@@H]([C@@H](C)CC)C(=O)N(C)CC(=O)N(C)[C@H]2C/C=C\CCN(C2=O)[C@@H](Cc2ccc(C(F)(F)F)cc2)C(=O)N(C)CC(=O)N[C@@H](CCc2cc(F)c(C(F)(F)F)c(F)c2)C(=O)N(C)[C@@H](COC)C(=O)NC2(CC(C)(C)C2)C(=O)N(C)[C@@H](C2CCCC2)C(=O)N(C)[C@H](C(=O)N(C)C)CC(=O)N1C [PP1936],HRAS/KRAS (ratio of KD value for HRAS to KD value for KRAS),"[1]; KD ratio, SPR",A (a compound having 10 or more and less than 20 is denoted as A)
same,NRAS/KRAS (ratio of KD value for NRAS to KD value for KRAS),"[2]; KD ratio, SPR",AA (a compound having 20 or more is denoted as AA)
CCO[C@@H]1C[C@H]2C(=O)NC3(CC=CC3)C(=O)N(C)[C@@H](C3CCCC3)C(=O)N(C)[C@H](C(=O)N(C)C)CC(=O)N(C)[C@@H](C)C(=O)N[C@@H]([C@@H](C)CC)C(=O)N(C)CC(=O)N(C)[C@H]3CCCCCN(C3=O)[C@@H](Cc3ccc(C(F)(F)F)cc3)C(=O)N(C)CC(=O)N[C@@H](CCc3cc(F)c(C(F)(F)F)c(F)c3)C(=O)N2C1 [PP0724],HRAS/KRAS (ratio of KD value with respect to GDP-bound HRAS wild-type protein to KD value with respect to KRAS),[1]; SPR,B (a compound having 3 or more and less than 10 is denoted as B)
same,NRAS/KRAS (ratio of KD value with respect to GDP-bound NRAS wild-type protein to KD value with respect to KRAS),[2]; SPR,B (a compound having 3 or more and less than 10 is denoted as B)
CC[C@H](C)[C@@H]1NC(=O)[C@H](CC)N(C)C(=O)C[C@@H](C(=O)N(C)C)N(C)C(=O)[C@H](C2CCCC2)N(C)C(=O)C2(CCC2)NC(=O)[C@@H]2CCCN2C(=O)[C@H](CCc2cc(F)c(C(F)(F)F)c(F)c2)NC(=O)CN(C)C(=O)[C@H](Cc2ccc(C(F)(F)F)cc2)N2CC/C=C\C[C@@H](C2=O)N(C)C(=O)CN(C)C1=O [PP1135],HRAS/KRAS (ratio of KD value with respect to HRAS to KD value with respect to KRAS),"[1]; KD ratio, SPR",A (a compound having 10 or more and less than 20 is denoted as A)
same,NRAS/KRAS (ratio of KD value with respect to NRAS to KD value with respect to KRAS),"[2]; KD ratio, SPR",A (a compound having 10 or more and less than 20 is denoted as A)
CCC(CC)[C@H]1C(=O)N(C)[C@H](C(=O)N(C)C)CC(=O)N(C)[C@@H](COC)C(=O)N[C@@H]([C@@H](C)CC)C(=O)N(C)CC(=O)N(C)[C@H]2C/C=C\CCN(C2=O)[C@@H](Cc2ccc(C(F)(F)F)cc2)C(=O)N(C)CC(=O)N[C@@H](CCc2cc(F)c(C(F)(F)F)c(F)c2)C(=O)N2CC[C@H]2C(=O)NC2(CC(C)(C)C2)C(=O)N1C [PP2918],HRAS/KRAS (ratio of KD value with respect to GDP-bound HRAS wild-type protein to KD value with respect to KRAS),[1]; class symbols,A (a compound having 10 or more and less than 20 is denoted as A)
same,NRAS/KRAS (ratio of KD value with respect to GDP-bound NRAS wild-type protein to KD value with respect to KRAS),[2]; class symbols,AA (a compound having 20 or more is denoted as AA)
CCO[C@@H]1C[C@H]2C(=O)NC3(CCC3)C(=O)N(C)[C@@H](C3CCCC3)C(=O)N(C)[C@H](C(=O)N3CCOCC3)CC(=O)N(C)[C@@H](CC(C)C)C(=O)N[C@@H]([C@H](C)CC)C(=O)N(C)CC(=O)N(C)[C@H]3CCCCCN(C3=O)[C@@H](Cc3ccc(C(F)(F)F)cc3)C(=O)N(C)CC(=O)N[C@@H](CCc3cc(F)c(C(F)(F)F)c(F)c3)C(=O)N2C1 [PP0815],HRAS/KRAS (ratio of KD value with respect to HRAS to KD value with respect to KRAS),"[1]; KD ratio, SPR",B (a compound having 3 or more and less than 10 is denoted as B)
same,NRAS/KRAS (ratio of KD value with respect to NRAS to KD value with respect to KRAS),"[2]; KD ratio, SPR",B (a compound having 3 or more and less than 10 is denoted as B)
CCOC[C@H]1C(=O)N[C@@H]([C@@H](C)CC)C(=O)N(C)CC(=O)N(C)[C@H]2C/C=C\CCN(C2=O)[C@@H](Cc2ccc(C)cc2)C(=O)N(C)CC(=O)N[C@@H](CCc2ccc(C(F)(F)F)c(Cl)c2)C(=O)N2C[C@@H](C)C[C@H]2C(=O)NC2(CC(C)(C)C2)C(=O)N(C)[C@@H](C2CCCC2)C(=O)N(C)[C@H](C(=O)N(C)C)CC(=O)N1C [PP2394],HRAS/KRAS (ratio of KD value with respect to HRAS to KD value with respect to KRAS),[1]; SPR,B (a compound having 3 or more and less than 10 is denoted as B)
same,NRAS/KRAS (ratio of KD value with respect to NRAS to KD value with respect to KRAS),[2]; SPR,A (a compound having 10 or more and less than 20 is denoted as A)
CCO[C@@H]1C[C@H]2C(=O)NC3(CC(C)(C)C3)C(=O)N(C)[C@@H](C3CCCC3)C(=O)N(C)[C@H](C(=O)N(C)CC)CC(=O)N(C)[C@@H](COC)C(=O)N[C@@H]([C@@H](C)CC)C(=O)N(C)CC(=O)N(C)[C@H]3C/C=C\CCN(C3=O)[C@@H](Cc3ccc(C)cc3)C(=O)N(C)CC(=O)N[C@@H](CCc3ccc(C(F)(F)F)c(Cl)c3)C(=O)N2C1 [PP2507],HRAS/KRAS (ratio of KD value with respect to HRAS to KD value with respect to KRAS),[1]; SPR,A (a compound having 10 or more and less than 20 is denoted as A)
same,NRAS/KRAS (ratio of KD value with respect to NRAS to KD value with respect to KRAS),[2]; SPR,AA (a compound having 20 or more is denoted as AA)
CCO[C@@H]1C[C@H]2C(=O)NC3(CCC3)C(=O)N(C)[C@@H](C3CCCC3)C(=O)N(C)[C@H](C(=O)N3CCOCC3)CC(=O)N(C)[C@@H](CC(C)C)C(=O)N[C@@H]([C@@H](C)CC)C(=O)N(C)CC(=O)N(C)[C@H]3CCCCCN(C3=O)[C@@H](Cc3ccc(F)c(Cl)c3)C(=O)N(C)CC(=O)N[C@@H](CCc3cc(F)c(C(F)(F)F)c(F)c3)C(=O)N2C1 [PP0919],HRAS/KRAS (ratio of KD value with respect to HRAS to KD value with respect to KRAS),"[1]; KD ratio, SPR",B (a compound having 3 or more and less than 10 is denoted as B)
same,NRAS/KRAS (ratio of KD value with respect to NRAS to KD value with respect to KRAS),"[2]; KD ratio, SPR",B (a compound having 3 or more and less than 10 is denoted as B)
